Laboratory results from patent publication US6875758B2, “Method of treating hyperlipidemic and hyperglycemic conditions in mammals using pregnadienols and pregnadienones” (Council of Scientific & Industrial Research, priority 1999, dated 2005).
Several values for one entry are separate records, joined by “and”; a condition that tells them apart may be missing. Equal values may be shown once.

How the values were obtained:
[1] = system: hyperlipidemic male albino rabbits; assay: Hypolipidemic activity in cholesterol fed hyperlipidemic rabbits (90 days); type: in vivo
Description: Effect of 3β-Hydroxypregna-5,16-dien-20-one (2) was studied on hypercholesterolemic albino rabbits. Twelve male albino rabbits (approx 1.5-2 kg) on a stock diet were made hyperlipidemic by feeding daily cholesterol 0.5 g/kg in 2 ml of groundnut oil for 45 days and then blood was drawn from the marginal vein in the ear of rabbits for serum cholesterol and triglycerides estimation.
Two controlled experiments were carried out for a period of three months. In one set of experiments, the control group received 0.5 g/kg of cholesterol for 90 days and 3β-Hydroxypregna-5,16-dien-20-one (2) in dose of 100 mg/kg and 50 mg/kg while in control group (given only cholesterol) a massive rise of serum cholesterol and triglycerides were seen after 90 days, the addition of 3β-Hydroxypregna-5,16dien-20-one (2) at 50 and 100 mg/kg doses kept the rise well under control. The percentage decrease at 100 mg dose was 28% at 30 days to 52% at 90 days for cholesterol and 45 to 81% for triglycerides. In the 50 mg/kg dose group the decrease percentage ranged from 40% at 30 days to 50% at 90 days for cholesterol and 45% at 30 days to 75% at 90 days for triglyceride (Table6)

glucose loaded rats = assay: Hypoglycemic activity in glucose loaded rats; type: in vivo, albino rats (Charles Foster strain); details: for Blood Glucose Level: 100 mg/kg p.o. + glucose 2.0 g/kg; for % inhibition compared to control (blood glucose): 100 mg/kg
Description: The experiments were carried out with albino rats (Charles Foster strain) of either sex weighing 150-160 g. They were fed on laboratory diet prepared by M/s Lipton India Ltd. and maintained under 12 hr. light/dark cycle at 25±2° C.
The animals were divided into eight groups, each of six rats; group I was given 1% gum acacia (0.1 ml/100 g body weight) intragastrically (p.o.) and the group II were given 3β-hydroxypregna-5,16-dien-20-one (2) in 1% gum acacia. Animals of group III were given the standard antidiabetic drug, tolbutamide in the similar fashion. 2.0 g/kg glucose was given p.o. to all the rats along with the vehicle/Compound/Standard antidiabetic drug. Blood samples were taken from retroorbital plexus at periodic intervals. Glucose levels in the blood samples were measured by glucose oxidase method [Bergmeyer and Benut, 1963 cited in “Methods of Enzymatic Analysis” ed. H. Bergmeyer, Verlag Chemie, GmBH, Weinheim, Beroster, pp123, Academic press, New York].

[2] = system: cholesterol fed hyperlipidemic rats; assay: Lipid peroxidation in cholesterol fed hyperlipidemic rats; type: in vivo
[3] = Hydroxy (OH) radical formation in nonenzymatic system (Fe2+, ascorbate, H2O2, deoxyribose); type: biochemical
[4] = system: isoproterneol induced myocardial necrosis in rat; assay: Isoproterneol induced myocardial necrosis in rats; type: in vivo; details: isoproterneol 85 mg/kg + drug 25 mg/kg p.o.
From the text: The underlying cause of myocardial infarction is believed to be the progressive deposition of lipids and fibrotic material into the arterial wall. These pregnadienols and pregnadienous also provided cardiac protection as assessed in isoproterneol induced myocardial necrosis in rat model, which produces myocardial infarction due to an increased blood pressure and heart rate.

[5] = 50 mg/kg + cholesterol 0.5 g/kg, day 30
[6] = 50 mg/kg + cholesterol 0.5 g/kg, day 60
[7] = 50 mg/kg + cholesterol 0.5 g/kg, day 90
[8] = 100 mg/kg + cholesterol 0.5 g/kg, day 30
[9] = 100 mg/kg + cholesterol 0.5 g/kg, day 60
[10] = 100 mg/kg + cholesterol 0.5 g/kg, day 90

## CC(=O)C1=CC[C@H]2[C@@H]3CC=C4C[C@@H](O)CC[C@]4(C)[C@H]3CC[C@]12C [Compound 2, 3β-Hydroxypregna-5,16-dien-20-one]
[1]; [5]
  S. Cholesterol: 190.5 mg %
  S. Triglycerides: 79.5 mg %
[1]; [6]
  S. Cholesterol: 305.5 mg %
  S. Triglycerides: 67.0 mg %
[1]; [7]
  S. Cholesterol: 660.3 mg %
  S. Triglycerides: 56.5 mg %
[1]; 50 mg/kg, day 30
  S. Cholesterol % Decrease vs cholesterol control: 40%
  S. Triglycerides % Decrease vs cholesterol control: 45%
[1]; 50 mg/kg, day 60
  S. Cholesterol % Decrease vs cholesterol control: 43%
  S. Triglycerides % Decrease vs cholesterol control: 64%
[1]; 50 mg/kg, day 90
  S. Cholesterol % Decrease vs cholesterol control: 50% and 51%
  S. Triglycerides % Decrease vs cholesterol control: 75% and 76%
[1]; [8]
  S. Cholesterol: 213.3 mg %
  S. Triglycerides: 79.0 mg %
[1]; [9]
  S. Cholesterol: 309.3 mg %
  S. Triglycerides: 54.0 mg %
[1]; [10]
  S. Cholesterol: 633.7 mg %
  S. Triglycerides: 44.2 mg %
[1]; 100 mg/kg, day 30
  S. Cholesterol % Decrease vs cholesterol control: 28%
  S. Triglycerides % Decrease vs cholesterol control: 45% and 46%
[1]; 100 mg/kg, day 60
  S. Cholesterol % Decrease vs cholesterol control: 42%
  S. Triglycerides % Decrease vs cholesterol control: 64%
[1]; 100 mg/kg, day 90
  S. Cholesterol % Decrease vs cholesterol control: 52% and 53%
  S. Triglycerides % Decrease vs cholesterol control: 81%
Glucose loaded rats; 100 mg/kg p.o. + glucose
  Maximum Blood Glucose Change: −18.7%
Glucose loaded rats; 0 min
  Blood Glucose Level: 42.43 ± 1.64 mg/dL
Glucose loaded rats; 30 min
  Blood Glucose Level: 76.15 ± 6.07 mg/dL
  % inhibition compared to control (blood glucose): (48) %
Glucose loaded rats; 60 min
  Blood Glucose Level: 56.06 ± 4.65 mg/dL
  % inhibition compared to control (blood glucose): (55) %
Glucose loaded rats; 90 min
  Blood Glucose Level: 55.06 ± 2.61 mg/dL
  % inhibition compared to control (blood glucose): (54) %
Glucose loaded rats; 120 min
  Blood Glucose Level: 49.59 ± 1.66 mg/dL
  % inhibition compared to control (blood glucose): (34) %
[2]; cholesterol + drug 25 mg/kg
  HDL lipid peroxides: 125 ± 10 n mol MDA/dl
  HDL lipid peroxides % reversal as compared with cholesterol fed rats: (−9) %
  LDL lipid peroxides: 421 ± 20 n mol MDA/dl
  LDL lipid peroxides % reversal as compared with cholesterol fed rats: (−30) %
  Liver lipid peroxides: 212 ± 16 n mol MDA/g
  Liver lipid peroxides % reversal as compared with cholesterol fed rats: (−23) %
  Serum lipid peroxides: 931.5 ± 51 n mol MDA/dl
  Serum lipid peroxides % reversal as compared with cholesterol fed rats: (−24) %
  VLDL lipid peroxides: 310 ± 15 n mol MDA/dl
  VLDL lipid peroxides % reversal as compared with cholesterol fed rats: (−18) %
[2]; cholesterol fed animals, simultaneous treatment
  lipid peroxide levels in serum VLDL, LDL and liver (in words): significant reversal
[3]
  generation of OH radical (in words): inhibits the generation of OH radical in concentration dependent manner
[3]; 5 μmol/ml
  % inhibition of OH radical formation: (28) %
  OH radical formation: 65.0 ± 5.4 nmol MDA/hr
[3]; 10 μmol/ml
  % inhibition of OH radical formation: (42) %
  OH radical formation: 52.8 ± 4.2 nmol MDA/hr
[3]; 20 μmol/ml
  % inhibition of OH radical formation: (74) %
  OH radical formation: 23.3 ± 1.8 nmol MDA/hr
[3]; 30 μmol/ml
  % inhibition of OH radical formation: (87) %
  OH radical formation: 11.7 ± 1.3 nmol MDA/hr
[3]; 40 μmol/ml
  % inhibition of OH radical formation: (88) %
  OH radical formation: 10.4 ± 2.0 nmol MDA/hr
[3]; 50 μmol/ml
  % inhibition of OH radical formation: (90) %
  OH radical formation: 9.9 ± 0.8 nmol MDA/hr
[4]
  Heart Ca. - ATPase % Protection: 30.2%
  Heart Glycogen % Protection: 25.1%
  Heart Lipid peroxide % Protection: 72.6%
  Heart Phospholipase % Protection: 74.2%
  Serum Alkaline Phosphatase % Protection: 24.0%
  Serum CPK % Protection: 35.7%
  Serum GOT % Protection: 27.0%
  Serum GPT % Protection: 22.7%
